Reference: patent publication US7053105B2, “Farnesyl transferase inhibiting quinoline and quinazoline derivatives as farnesyl transferase inhibitors” (Janssen Pharmaceutica, N.V., priority 2000, dated 2006)

Structure (SMILES)	melting point
CSc1nnc(C(N)(c2ccc(Cl)cc2)c2ccc3nc(C)cc(-c4cccc(Cl)c4)c3c2)n1C (stereo not drawn) [Example B16b, 4-(3-chlorophenyl)-α-(4-chlorophenyl)-2-methyl-α-[4-methyl-5-(methylthio)-4H-1,2,4-triazol-3-yl]-6-quinolinemethanamine]	128 °C
Cn1cncc1C(O)(c1ccc(Cl)cc1)c1ccc2nc(C=NO)cc(-c3cccc(Cl)c3)c2c1 (racemic) [Example B1, (±)-4-(3-chlorophenyl)-6-[(4-chlorophenyl)hydroxy(1-methyl-1H-imidazol-5-yl)methyl]-2-quinolinecarboxaldehyde, oxime]	205 °C
Cc1cc(-c2cccc(Cl)c2)c2cc(C(O)(c3ccc(Cl)cc3)c3nnc(S)n3C)ccc2n1 (stereo not drawn) [Example B14a, 4-(3-chlorophenyl)-α-(4-chlorophenyl)-α-(5-mercapto-4-methyl-4H-1,2,4-triazol-3-yl)-2-methyl-6-quinolinemethanol]	166 °C
Cn1cncc1C(O)(c1ccc(Cl)cc1)c1ccc2nc(-c3cccnc3)nc(-c3cccc(Cl)c3)c2c1 (stereo not drawn) [Example B26, 4-(3-chlorophenyl)-α-(4-chlorophenyl)-α-(1-methyl-1H-imidazol-5-yl)-2-(3-pyridinyl)-6-quinazolinemethanol]	178 °C
Cn1cncc1C(O)(c1ccc(Cl)cc1)c1ccc2nc(N)nc(-c3cccc(Cl)c3)c2c1 (stereo not drawn) [Example B19, 2-amino-4-(3-chlorophenyl)-α-(4-chlorophenyl)-α-(1-methyl-1H-imidazol-5-yl)-6-quinazolinemethanol]	235 °C

The remaining lines, values ahead:

melting point	Structure (SMILES)
160 °C	Cn1cncc1-c1nc(-c2cccc(Cl)c2)c2cc(C(O)(c3ccc(Cl)cc3)c3cncn3C)ccc2n1 (stereo not drawn) [Example B6, 4-(3-chlorophenyl)-α-(4-chlorophenyl)-α,2-bis(1-methyl-1H-imidazol-5-yl)-6-quinazolinemethanol]
142 °C	CSc1nnc(C(O)(c2ccc(Cl)cc2)c2ccc3nc(C)cc(-c4cccc(Cl)c4)c3c2)n1C (stereo not drawn) [Example B14b, 4-(3-chlorophenyl)-α-(4-chlorophenyl)-2-methyl-α-[4-methyl-5-(methylthio)-4H-1,2,4-triazol-3-yl]-6-quinolinemethanol]
150 °C	Cc1cc(-c2cccc(Cl)c2)c2cc(C(O)(c3ccc(Cl)cc3)c3nncn3C)ccc2n1.O (centres unmarked) (hydrate or solvate)
154 °C	Cn1cncc1C(O)(c1ccc(Cl)cc1)c1ccc2nc(C#Cc3ccccc3)cc(-c3cccc(Cl)c3)c2c1 (stereo not drawn) [Example B25, 4-(3-chlorophenyl)-α-(4-chlorophenyl)-α-(1-methyl-1H-imidazol-5-yl)-2-(phenylethynyl)-6-quinolinemethanol]
80 °C	Cn1cncc1C(O)(c1ccc(Cl)cc1)c1ccc2nc(/C=C/C(N)=O)cc(-c3cccc(Cl)c3)c2c1 (racemic) [Example B11, (±)-(E)-3-[4-(3-chlorophenyl)-6-[(4-chlorophenyl)hydroxy(1-methyl-1H-imidazol-5-yl)methyl]-2-quinolinyl]-2-propenamide]
223 °C	Cc1nc(-c2cccc(Cl)c2)c2cc(C(O)(c3ccc(Cl)cc3)c3cncn3C)ccc2n1 (stereo not drawn) [Example B13, 4-(3-chlorophenyl)-α-(4-chlorophenyl)-2-methyl-α-(1-methyl-1H-imidazol-5-yl)-6-quinazolinemethanol]
